Patent US20250270227A1, “CAMPTOTHECIN DERIVATIVE, AND PHARMACEUTICAL COMPOSITION AND USE THEREOF” (SIMCERE ZAIMING PHARMACEUTICAL CO., LTD., priority 2021, published 2025)
Like-named read-outs stand apart in the source and are kept apart here.

Key:
Assay in all cases: Inhibitory effect on CYP enzymatic activity in human liver microsomes
Type in all cases: in vitro ADME
CYP3A4 = CYP3A4 (Homo sapiens (Human), UniProt P08684)
Experimental: (§1) The inhibition of CYP2C9, CYP2D6 and CYP3A4 enzymatic activities by the compounds of the present disclosure was determined by the following experimental method.
(§2) • 1. Human liver microsomes (Corning 452117) • 2. NADPH (Solarbio 705Y021) • 3. Positive substrates diclofenac (Sigma SLBV3438), dextromethorphan (TRC 3-EDO-175-1) and midazolam (Cerilliant FE01161704) • 4. Positive inhibitors sulfaphenazole (D. Ehrenstorfer GmbH 109012), quinidine (TCI WEODL-RE) and ketoconazole (Sigma 100M1091V) • 5. AB Sciex Triple Quad 5500 liquid chromatography-mass spectrometry
(§3) • 1. Preparation of 100 mM phosphate buffered saline (PBS): 7.098 g of Na2HPO4 was weighed, 500 mL of pure water was added and subjected to ultrasonic dissolution to obtain solution A. 3.400 g of KH2PO4 was weighed, 250 mL of pure water was added and subjected to ultrasonic dissolution to obtain solution B. Solution A was placed on a stirrer and solution B was slowly added until the pH value reached 7.4 to prepare 100 mM PBS buffer. • 2. Preparation of 10 mM NADPH solution with 100 mM PBS buffer. The 10 mM stock solution of the compound of the present disclosure was diluted with DMSO to obtain a 200× concentration of compound working solution (6000, 2000, 600, 200, 60, 20, 0 μM). The stock solution of positive inhibitors was diluted with DMSO to obtain a 200× concentration of positive inhibitor working solution (sulfaphenazole, 1000, 300, 100, 30, 10, 3, 0 μM; quinidine/ketoconazole, 100, 30, 10, 3, 1, 0.3, 0 μM). A 200× concentration of substrate working solution (120 μM diclofenac, 400 μM dextromethorphan, and 200 μM midazolam) was prepared with water, acetonitrile, or acetonitrile/methanol. • 3. 2 μL of 20 mg/ml liver microsome solution, 1 μL of substrate working solution, 1 μL of compound working solution and 176 μL of PBS buffer were taken, mixed uniformly, and pre-incubated in a 37° C. water bath for 15 min. To the positive control group was added 1 μL of sulfaphenazole, quinidine or ketoconazole working solution instead of compound working solution. A 10 mM NADPH solution was also pre-incubated in the 37° C. water bath for 15 min. After 15 min, 20 μL of NADPH was taken and added to each well to initiate the reaction, and the reaction was incubated at 37° C. for 5 min (CYP2C9), 20 min (CYP2D6) or 5 min (CYP3A4). Double samples were set for all incubation samples. After the corresponding time of incubation, 400 μL of glacial methanol containing internal standard was added to all samples to stop the reaction. The mixture was mixed uniformly by vortex and centrifuged at 3220 g for 40 min at 4° C. After the completion of the centrifugation, 100 μL of the supernatant was transferred to a loading plate, and 100 μL of ultrapure water was added and mixed uniformly for LC-MS/MS analysis.
(§4) The reduction in metabolite production in the administration group compared to the control group was compared by the ratio of sample peak area to internal standard peak area, and IC50 value was calculated by Excel XLfit 5.3.1.3.
(§5) The percent remaining activity was calculated by the following equation: […]

CYP2D6 = CYP2D6 (Homo sapiens (Human), UniProt P10635)
CYP2D6, sequence (P10635 whole entry): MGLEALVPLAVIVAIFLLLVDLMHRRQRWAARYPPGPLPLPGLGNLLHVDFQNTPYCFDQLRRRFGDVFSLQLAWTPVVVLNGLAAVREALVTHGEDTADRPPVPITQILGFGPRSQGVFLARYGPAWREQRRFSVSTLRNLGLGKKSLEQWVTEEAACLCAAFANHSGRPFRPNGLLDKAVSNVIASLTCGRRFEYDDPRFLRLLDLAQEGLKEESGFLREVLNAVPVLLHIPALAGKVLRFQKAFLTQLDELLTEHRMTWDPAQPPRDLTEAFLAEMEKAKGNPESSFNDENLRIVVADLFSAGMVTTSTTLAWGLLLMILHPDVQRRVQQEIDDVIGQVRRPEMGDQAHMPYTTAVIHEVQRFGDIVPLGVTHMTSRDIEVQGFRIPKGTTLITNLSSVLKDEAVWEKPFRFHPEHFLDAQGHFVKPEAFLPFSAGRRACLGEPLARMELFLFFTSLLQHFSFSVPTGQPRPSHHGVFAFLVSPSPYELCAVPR
Experimental: as §1, §2, §3, §4, §5

CYP2C9 = CYP2C9 (Homo sapiens (Human), UniProt P11712)
CYP2C9, sequence (P11712 whole entry): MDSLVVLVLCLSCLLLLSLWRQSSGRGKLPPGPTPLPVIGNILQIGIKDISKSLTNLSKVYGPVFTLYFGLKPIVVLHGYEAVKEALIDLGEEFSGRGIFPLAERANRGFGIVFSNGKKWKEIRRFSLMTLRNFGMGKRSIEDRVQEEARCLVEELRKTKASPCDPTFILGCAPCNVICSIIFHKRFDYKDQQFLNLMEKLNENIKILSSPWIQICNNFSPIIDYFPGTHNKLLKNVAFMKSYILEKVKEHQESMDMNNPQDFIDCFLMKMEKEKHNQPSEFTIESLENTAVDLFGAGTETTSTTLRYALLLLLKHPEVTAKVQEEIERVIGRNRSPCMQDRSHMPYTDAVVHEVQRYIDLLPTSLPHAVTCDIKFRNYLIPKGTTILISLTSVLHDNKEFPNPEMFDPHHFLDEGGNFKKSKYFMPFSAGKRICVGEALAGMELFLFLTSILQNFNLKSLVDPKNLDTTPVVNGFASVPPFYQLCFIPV
Experimental: as §1, §2, §3, §4, §5

Measured: IC50

CYP3A4, sequence (P08684 whole entry): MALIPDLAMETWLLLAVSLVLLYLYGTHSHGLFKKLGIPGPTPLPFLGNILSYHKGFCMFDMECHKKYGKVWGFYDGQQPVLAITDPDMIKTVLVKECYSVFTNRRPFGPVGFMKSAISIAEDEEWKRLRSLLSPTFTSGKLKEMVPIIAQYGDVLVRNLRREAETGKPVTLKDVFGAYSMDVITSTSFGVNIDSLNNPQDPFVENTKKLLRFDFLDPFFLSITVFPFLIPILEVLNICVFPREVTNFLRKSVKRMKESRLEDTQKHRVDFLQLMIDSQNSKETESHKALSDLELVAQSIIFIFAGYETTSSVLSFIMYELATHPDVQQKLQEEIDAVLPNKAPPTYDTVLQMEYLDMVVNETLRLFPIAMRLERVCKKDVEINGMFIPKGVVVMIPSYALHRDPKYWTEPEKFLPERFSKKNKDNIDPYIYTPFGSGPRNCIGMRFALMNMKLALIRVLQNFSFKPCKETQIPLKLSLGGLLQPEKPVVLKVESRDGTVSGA

CC[C@@]1(O)C(=O)OCc2c1cc1n(c2=O)Cc2c-1nc1cc3c(cc1c2CNC(=O)C(O)C1CC1)OCO3 (single isomer, unassigned) [Compound 14-P1]
> 50 µM: CYP3A4 | CYP2D6; read-out: Inhibition on CYP2D6 IC50, human liver microsomes, substrate dextromethorphan | CYP2C9

CC[C@@]1(O)C(=O)OCc2c1cc1n(c2=O)Cc2c-1nc1cc3c(cc1c2CNC(=O)C(O)C1CC1)OCO3 (single isomer, unassigned) [Compound 14-P2]
> 50 µM: CYP3A4; read-out: Inhibition on CYP3A4 IC50, human liver microsomes, substrate midazolam | CYP2D6 | CYP2C9; read-out: Inhibition on CYP2C9 IC50, human liver microsomes, substrate diclofenac

CC[C@@]1(O)C(=O)OCc2c1cc1n(c2=O)Cc2c-1nc1cc3c(c(F)c1c2CNC(=O)[C@@H](O)C1CC1)OCO3 (single isomer, unassigned) [Compound 37-P1]
> 50 µM: CYP3A4 | CYP2D6 | CYP2C9

[2H]C1([2H])Oc2cc3nc4c(c(CNC(=O)C(O)C5CC5)c3cc2O1)Cn1c-4cc2c(c1=O)COC(=O)[C@]2(O)CC (stereo partly drawn) [Compound 39, 2-cyclopropyl-N-(((S)-7-ethyl-7-hydroxy-8,11-dioxo-7,8,11,13-tetrahydro-10H-[1,3]dioxolo[4,5-g]pyrano[3′,4′:6,7]indolizino[1,2-b]quinolin-14-yl-2,2-d2)methyl)-2-hydroxyacetamide]
> 50 µM: CYP3A4 | CYP2D6 | CYP2C9
